Test results reported in patent publication US9029336B2, “Xenobiotic related induction of gene expression” (The University of Sydney, priority 1998, dated 2015).

Molecular target: T1, hPXR (Homo sapiens, UniProt O75469)
T1 sequence (O75469 1-434): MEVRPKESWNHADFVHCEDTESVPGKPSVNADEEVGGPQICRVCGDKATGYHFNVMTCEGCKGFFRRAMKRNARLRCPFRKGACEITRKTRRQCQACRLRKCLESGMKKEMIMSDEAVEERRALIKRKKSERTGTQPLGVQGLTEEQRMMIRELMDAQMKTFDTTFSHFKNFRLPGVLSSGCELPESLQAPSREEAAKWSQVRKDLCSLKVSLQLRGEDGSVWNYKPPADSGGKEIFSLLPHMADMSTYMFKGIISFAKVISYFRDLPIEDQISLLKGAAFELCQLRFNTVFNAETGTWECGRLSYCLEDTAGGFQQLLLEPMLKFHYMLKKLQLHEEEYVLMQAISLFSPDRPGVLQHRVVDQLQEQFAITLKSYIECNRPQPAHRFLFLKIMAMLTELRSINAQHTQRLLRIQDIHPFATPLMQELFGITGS
Test: CYP3A4 XREM reporter construct cotransfected with hPXR expression vector (pSG-hPXR) in HepG2 cells
Settings: FIG. 4; for action on the XREM via the hPXR: HepG2, XREM reporter + hPXR expression vector
Text: The present inventors cotransfected a CYP3A4 5′-flanking region construct, containing the XREM and linked to a luciferase reporter, into HepG2 cells either with or without a hPXR expression construct (pSG-hPXR).
Many drugs induce the transcription of the CYP3A4 gene.

CCC1(c2ccccc2)C(=O)NC(=O)NC1=O [phenobarbitone]
action on the XREM via the hPXR: act on the XREM via the hPXR

Clc1ccccc1C(c1ccccc1)(c1ccccc1)n1ccnc1 [clotrimazole]
action on the XREM via the hPXR: act on the XREM via the hPXR
induction of the XREM construct (HepG2 cells transfected with XREM reporter): induced the XREM construct in a manner analogous to that that occurs in vivo
